The results in this text go back to patent US20250388589A1, “TRICYCLIC HETEROCYCLIC DERIVATIVES, COMPOSITIONS AND USES THEREOF” (Danatlas Pharmaceuticals Co., Ltd., priority 2022, published 2025).

For test [1], the target named is hPARG (C-terminal His6-tag) (Homo sapiens (Human), UniProt Q86W56). The test can be described thus: PARG Enzymatic Activity Assay (HTRF). It counts as biochemical. Particulars: hPARG 65 pM final, biotinylated-NAD ribosylated PARP1 8 nM final. In outline:
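E. coli-expressed enzyme (65 pM final) preincubated 60 min RT with compounds (10-point 4-fold dilution, duplicate) in 50 mM Tris pH 7.4, 3 mM EDTA, 1 mM DTT, 50 mM KCl, 0.01% Tween 20. Biotinylated-NAD ribosylated PARP1 substrate (8 nM final) reacted 10 min RT; Eu-streptavidin/anti-6HIS-XL665 HTRF read 665/620 nm after 60 min. IC50 from 4-parameter Hill fit.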

Another test has as its system Kuramochi cell line. The test can be described thus: Cell Viability Assay (Cell Titer-Glo, 7 days). It counts as cell-based. The conditions noted are these: 168 h, Kuramochi cells, 7 days incubation, read-out: PARG Cell viability (IC50). In outline:
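Kuramochi cells in RPMI with 10% FBS, seeded at 400 cells/well, were treated with a 9-point 3-fold dilution series in duplicate for 7 days at 37 °C, 5% CO2. Viability by CellTiter-Glo luminescence, normalised to DMSO and medium-only controls; IC50 from 4-parameter Hill fit.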

Chain of hPARG (C-terminal His6-tag) (Q86W56 whole entry): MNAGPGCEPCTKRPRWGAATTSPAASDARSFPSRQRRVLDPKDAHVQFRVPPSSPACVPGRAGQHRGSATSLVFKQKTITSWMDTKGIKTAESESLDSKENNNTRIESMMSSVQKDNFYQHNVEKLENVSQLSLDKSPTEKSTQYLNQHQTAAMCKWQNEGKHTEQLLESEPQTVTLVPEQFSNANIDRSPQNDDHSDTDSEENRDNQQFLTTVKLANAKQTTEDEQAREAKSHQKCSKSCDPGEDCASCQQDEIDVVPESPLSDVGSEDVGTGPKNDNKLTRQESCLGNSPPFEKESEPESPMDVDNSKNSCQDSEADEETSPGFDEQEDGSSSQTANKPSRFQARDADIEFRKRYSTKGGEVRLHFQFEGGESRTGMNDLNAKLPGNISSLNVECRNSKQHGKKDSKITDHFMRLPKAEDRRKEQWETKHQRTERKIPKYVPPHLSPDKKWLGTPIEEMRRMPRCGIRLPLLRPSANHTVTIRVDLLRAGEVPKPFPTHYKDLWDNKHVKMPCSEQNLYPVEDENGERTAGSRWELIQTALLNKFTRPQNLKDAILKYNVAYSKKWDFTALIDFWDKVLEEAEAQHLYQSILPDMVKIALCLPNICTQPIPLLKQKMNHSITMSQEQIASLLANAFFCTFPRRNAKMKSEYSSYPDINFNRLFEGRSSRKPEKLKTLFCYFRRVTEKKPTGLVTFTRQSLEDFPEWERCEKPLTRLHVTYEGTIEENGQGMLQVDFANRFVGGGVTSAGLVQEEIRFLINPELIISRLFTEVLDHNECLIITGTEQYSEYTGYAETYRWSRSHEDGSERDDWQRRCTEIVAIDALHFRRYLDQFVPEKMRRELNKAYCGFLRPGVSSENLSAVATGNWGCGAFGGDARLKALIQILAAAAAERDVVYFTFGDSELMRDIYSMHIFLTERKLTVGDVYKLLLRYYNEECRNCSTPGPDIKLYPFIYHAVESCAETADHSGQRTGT

For `CO[C@H](C)C(=O)N1CCC(c2ncnc3c2c2ccc(S(=O)(=O)NC4(C#N)CC4)cc2n3-c2nnc(C(F)F)s2)CC1` [Example 109, (R)-N-(1-cyanocyclopropyl)-9-(5-(difluoromethyl)-1,3,4-thiadiazol-2-yl)-4-(1-(2-methoxypropanoyl)piperidin-4-yl)-9H-pyrimido[4,5-b]indole-7-sulfonamide], the IC50 (in test [1]; in the test on Kuramochi cell line) was under 100 nM in each case.
On to `N#CC1(NS(=O)(=O)c2ccc3c4c(C5CCN(C(=O)[C@H]6CCCO6)CC5)ncnc4n(-c4nnc(C(F)F)s4)c3c2)CC1` [Example 110, (R)-N-(1-cyanocyclopropyl)-9-(5-(difluoromethyl)-1,3,4-thiadiazol-2-yl)-4-(1-(tetrahydrofuran-2-carbonyl)piperidin-4-yl)-9H-pyrimido[4,5-b]indole-7-sulfonamide], for which the half-maximal inhibitory concentration (IC50) (in test [1]; in the test with Kuramochi cell line) was under 100 nM each time.
`N#CC1(NS(=O)(=O)c2ccc3c4c(C5CCN(C(=O)[C@@H]6CCCO6)CC5)ncnc4n(-c4nnc(C(F)F)s4)c3c2)CC1` [Example 111, (S)-N-(1-cyanocyclopropyl)-9-(5-(difluoromethyl)-1,3,4-thiadiazol-2-yl)-4-(1-(tetrahydrofuran-2-carbonyl)piperidin-4-yl)-9H-pyrimido[4,5-b]indole-7-sulfonamide]: the IC50 (in test [1]; in the test with Kuramochi cell line) was under 100 nM throughout.
`CN1CCC[C@H]1C(=O)N1CCC(c2ncnc3c2c2ccc(S(=O)(=O)NC4(C#N)CC4)cc2n3-c2nnc(C(F)F)s2)CC1` [Example 112, N-(1-cyanocyclopropyl)-9-(5-(difluoromethyl)-1,3,4-thiadiazol-2-yl)-4-(1-(methyl-L-prolyl)piperidin-4-yl)-9H-pyrimido[4,5-b]indole-7-sulfonamide]: the IC50 in test [1] is under 100 nM; in the test with Kuramochi cell line, 100 to 1000 nM.
For the compound `N#CC1(NS(=O)(=O)c2ccc3c4c(C5CCN(C(=O)C6COC6)CC5)ncnc4n(-c4nnc(C(F)F)s4)c3c2)CC1` [Example 113, N-(1-cyanocyclopropyl)-9-(5-(difluoromethyl)-1,3,4-thiadiazol-2-yl)-4-(1-(oxetane-3-carbonyl)piperidin-4-yl)-9H-pyrimido[4,5-b]indole-7-sulfonamide], the IC50 (in test [1]; in the test on Kuramochi cell line) was under 100 nM each time.
With `N#CC1(NS(=O)(=O)c2ccc3c4c(C5CCN(C(=O)C6(O)CC6)CC5)ncnc4n(-c4nnc(C(F)F)s4)c3c2)CC1` [Example 114, N-(1-cyanocyclopropyl)-9-(5-(difluoromethyl)-1,3,4-thiadiazol-2-yl)-4-(1-(1-hydroxycyclopropane-1-carbonyl)piperidin-4-yl)-9H-pyrimido[4,5-b]indole-7-sulfonamide], the IC50 is under 100 nM in test [1] and 100 to 1000 nM in the test on Kuramochi cell line.
For `N#CC1(NS(=O)(=O)c2ccc3c4c(C5CCN(C(=O)[C@H]6CCOC6)CC5)ncnc4n(-c4nnc(C(F)F)s4)c3c2)CC1` [Example 115, (S)-N-(1-cyanocyclopropyl)-9-(5-(difluoromethyl)-1,3,4-thiadiazol-2-yl)-4-(1-(tetrahydrofuran-3-carbonyl)piperidin-4-yl)-9H-pyrimido[4,5-b]indole-7-sulfonamide], in that order: under 100 nM and under 100 nM.
For `N#CC1(NS(=O)(=O)c2ccc3c4c(C5CCN(C(=O)[C@@H]6CCOC6)CC5)ncnc4n(-c4nnc(C(F)F)s4)c3c2)CC1` [Example 116, (R)-N-(1-cyanocyclopropyl)-9-(5-(difluoromethyl)-1,3,4-thiadiazol-2-yl)-4-(1-(tetrahydrofuran-3-carbonyl)piperidin-4-yl)-9H-pyrimido[4,5-b]indole-7-sulfonamide], in that order: under 100 nM and under 100 nM.
On to `COCC(=O)N1CCC(c2ncnc3c2c2ccc(S(=O)(=O)NC4(C#N)CC4)cc2n3-c2nnc(C(F)F)s2)CC1` [Example 117, N-(1-cyanocyclopropyl)-9-(5-(difluoromethyl)-1,3,4-thiadiazol-2-yl)-4-(1-(2-methoxyacetyl)piperidin-4-yl)-9H-pyrimido[4,5-b]indole-7-sulfonamide], for which the IC50 (in test [1]; in the test with Kuramochi cell line) was under 100 nM in each case.
On to `CC(C)(O)C(=O)N1CCC(c2ncnc3c2c2ccc(S(=O)(=O)NC4(C#N)CC4)cc2n3-c2nnc(C(F)F)s2)CC1` [Example 118, N-(1-cyanocyclopropyl)-9-(5-(difluoromethyl)-1,3,4-thiadiazol-2-yl)-4-(1-(2-hydroxy-2-methylpropanoyl)piperidin-4-yl)-9H-pyrimido[4,5-b]indole-7-sulfonamide], for which the concentration for half-maximal inhibition (IC50) (in test [1]; in the test with Kuramochi cell line) was under 100 nM each time.
`COC(C)(C)C(=O)N1CCC(c2ncnc3c2c2ccc(S(=O)(=O)NC4(C#N)CC4)cc2n3-c2nnc(C(F)F)s2)CC1` [Example 119, N-(1-cyanocyclopropyl)-9-(5-(difluoromethyl)-1,3,4-thiadiazol-2-yl)-4-(1-(2-methoxy-2-methylpropanoyl)piperidin-4-yl)-9H-pyrimido[4,5-b]indole-7-sulfonamide]: the IC50 (in test [1]; in the test on Kuramochi cell line) was under 100 nM each time.
With `CCC(=O)N1CCC(c2ncnc3c2c2ccc(S(=O)(=O)NC4(C#N)CC4)cc2n3-c2nnc(C(F)F)s2)CC1` [Example 120, N-(1-cyanocyclopropyl)-9-(5-(difluoromethyl)-1,3,4-thiadiazol-2-yl)-4-(1-propionylpiperidin-4-yl)-9H-pyrimido[4,5-b]indole-7-sulfonamide], the IC50 (in test [1]; in the test on Kuramochi cell line) was under 100 nM in each case.
Turning to `CS(=O)(=O)N1CCC(c2ncnc3c2c2ccc(S(=O)(=O)NC4(C#N)CC4)cc2n3-c2nnc(C(F)F)s2)CC1` [Example 121, N-(1-Cyanocyclopropyl)-9-(5-(difluoromethyl)-1,3,4-thiadiazol-2-yl)-4-(1-(methylsulfonyl)piperidin-4-yl)-9H-pyrimido[4,5-b]indole-7-sulfonamide], the half-inhibitory concentration (IC50) (in test [1]; in the test with Kuramochi cell line) was under 100 nM each time.
With `CCS(=O)(=O)N1CCC(c2ncnc3c2c2ccc(S(=O)(=O)NC4(C#N)CC4)cc2n3-c2nnc(C(F)F)s2)CC1` [Example 122, N-(1-Cyanocyclopropyl)-9-(5-(difluoromethyl)-1,3,4-thiadiazol-2-yl)-4-(1-(ethylsulfonyl)piperidin-4-yl)-9H-pyrimido[4,5-b]indole-7-sulfonamide], the concentration for half-maximal inhibition (IC50) (in test [1]; in the test with Kuramochi cell line) was under 100 nM throughout.
With `CC(C)S(=O)(=O)N1CCC(c2ncnc3c2c2ccc(S(=O)(=O)NC4(C#N)CC4)cc2n3-c2nnc(C(F)F)s2)CC1` [Example 123, N-(1-Cyanocyclopropyl)-9-(5-(difluoromethyl)-1,3,4-thiadiazol-2-yl)-4-(1-(isopropylsulfonyl)piperidin-4-yl)-9H-pyrimido[4,5-b]indole-7-sulfonamide], the IC50 (in test [1]; in the test with Kuramochi cell line) was under 100 nM throughout.
Regarding `N#CC1(NS(=O)(=O)c2ccc3c4c(C5CCN(C(=O)[C@@H]6CCCN6)CC5)ncnc4n(-c4nnc(C(F)F)s4)c3c2)CC1` [Example 124, (S)—N-(1-Cyanocyclopropyl)-9-(5-(difluoromethyl)-1,3,4-thiadiazol-2-yl)-4-(1-prolylpiperidin-4-yl)-9H-pyrimido[4,5-b]indole-7-sulfonamide], the results for the IC50 (in test [1]; in the test with Kuramochi cell line) were under 100 nM and 100 to 1000 nM, respectively.
